Source: publication PMC10500703 (Journal of medicinal chemistry, 2021)
Values after ≈ are worked out from the molar mass of the structure shown. Like-named read-outs stand apart in the source and are kept apart here.

Key:
Mtb H37Rv [1] = assay: microbe, parasite or virus in culture; conditions: Mycobacterium tuberculosis
physchem = conditions: pH 7
[2] = Mouse PK, intravenous dosing; format: in vivo; conditions: for CLb: total body clearance from whole blood; for half-life at 24 h: in vivo, iv, 2 mg/kg
non-replicating Mtb = format: cell-based, Mycobacterium tuberculosis
replicating Mtb = format: cell-based, Mycobacterium tuberculosis
[3] = format: in vivo, mouse; conditions: for exposure on oral dosing: oral dosing (data not shown)
Mtb isolate S1125 = assay: microbe, parasite or virus in culture; format: cell-based; conditions: Mycobacterium tuberculosis
Microsomal clearance [4] = format: in vitro ADME; conditions: rat microsomes
Mtb H37RvMA = format: cell-based, Mycobacterium tuberculosis
Microsomal clearance [5] = format: in vitro ADME; conditions: mouse microsomes
Mtb Erdman strain = format: cell-based, Mycobacterium tuberculosis
Mtb H37Rv [6] = test system: Mtb H37Rv
LogD = format: physicochemical
intracellular Mtb = format: cell-based, Mycobacterium tuberculosis; conditions: read-out: IC90 against intracellular Mtb
Microsomal clearance [7] = format: in vitro ADME; conditions: human microsomes
Human plasma protein = Human plasma protein binding; format: in vitro ADME; conditions: fraction unbound
[8] = aqueous pH 7.4 phosphate buffer simulating thermodynamic conditions

Question: For `CC(CC(=O)NS(C)(=O)=O)c1cn(-c2ccc(Cl)cc2)nc1-c1ccncc1` (stereo not shown) [Compound 37, 3-(1-(4-chlorophenyl)-3-(pyridin-4-yl)-1H-pyrazol-4-yl)-N-(methylsulfonyl)butanamide], which MIC (Mtb H37Rv [1]) is on record?
Answer: ≥ 50 µM

Question: Which results are given for `CS(=O)(=O)NC(=O)/C=C/c1cn(-c2ccc(Br)cc2)nc1-c1ccncc1` [Compound 39, (E)-3-(1-(4-bromophenyl)-3-(pyridin-4-yl)-1H-pyrazol-4-yl)-N-(methylsulfonyl)acrylamide]?
Answer: solubility (physchem): 185 µM (≈ 82.8 µg/mL); MIC (Mtb H37Rv [1]): 1.2 to 4.7 µM (≈ 0.537 to 2.1 µg/mL)

Question: For `CS(=O)(=O)NC(=O)CCc1cn(-c2ccc(C(F)(F)F)nc2)nc1-c1ccc(Cl)cc1` [Compound 10, 3-(3-(4-chlorophenyl)-1-(6-(trifluoromethyl)pyridin-3-yl)-1H-pyrazol-4-yl)-N-(methylsulfonyl)propanamide], which CLb ([2]; intravenous 2 mg/kg) is on record?
Answer: 67.4 mL/min/kg

Question: For `O=c1[nH]c(CCc2cn(-c3ccc(Br)cc3)nc2-c2ccc(Cl)cc2)no1` [Compound 47, 3-(2-(1-(4-bromophenyl)-3-(4-chlorophenyl)-1H-pyrazol-4-yl)ethyl)-1,2,4-oxadiazol-5(4H)-one], which MIC (Mtb H37Rv [1]; 336 h) is on record?
Answer: ≥ 50 µM

Question: With `CS(=O)(=O)NC(=O)CCc1cn(-c2ccc(Br)cc2)nc1-c1ccc([N+](=O)[O-])cc1` [Compound 23, 3-(1-(4-bromophenyl)-3-(4-nitrophenyl)-1H-pyrazol-4-yl)-N-(methylsulfonyl)propanamide] as the compound, how does the MIC (Mtb H37Rv [1]) read?
Answer: 12.5 µM (≈ 6.17 µg/mL)

Question: For `CS(=O)(=O)NC(=O)CCc1cn(-c2ccc(Cl)cc2)nc1-c1ccncc1` [Compound 35, 3-(1-(4-chlorophenyl)-3-(pyridin-4-yl)-1H-pyrazol-4-yl)-N-(methylsulfonyl)propanamide], which MIC (Mtb H37Rv [1]) is on record?
Answer: 6.25 µM (≈ 2.53 µg/mL)

Question: What does the source list for `CS(=O)(=O)NC(=O)C1CC1c1cn(-c2ccc(Cl)cc2)nc1-c1ccncc1` (stereo not shown) [Compound 40, 2-(1-(4-chlorophenyl)-3-(pyridin-4-yl)-1H-pyrazol-4-yl)-N-(methylsulfonyl)cyclopropane-1-carboxamide]?
Answer: CLb ([2]; intravenous 2 mg/kg): > 200 mL/min/kg; MIC (Mtb H37Rv [1]): 12.5 to 19 µM (≈ 5.21 to 7.92 µg/mL)

Question: Which half-life at 24 h [2] does the source give for `CS(=O)(=O)NC(=O)NCc1cn(-c2ccc(Cl)cc2)nc1-c1ccncc1` [Compound 43, N-(((1-(4-chlorophenyl)-3-(pyridin-4-yl)-1H-pyrazol-4-yl)methyl)carbamoyl)methanesulfonamide] here?
Answer: 2 h

Question: And the CLb ([2]; intravenous 2 mg/kg)?
Answer: > 200 mL/min/kg

Question: Which MIC (Mtb H37Rv [1]) does the source give for `CS(=O)(=O)NC(=O)CCc1cn(-c2ccc(Br)cc2)nc1-c1cccc(Cl)c1` [Compound 14, 3-(1-(4-bromophenyl)-3-(3-chlorophenyl)-1H-pyrazol-4-yl)-N-(methylsulfonyl)propanamide] here?
Answer: 2.3 µM (≈ 1.11 µg/mL)

Question: Which half-life at 24 h [2] does the source give for `CS(=O)(=O)NC(=O)CCc1cn(-c2ccc(Br)cc2)nc1-c1ccc(Cl)cc1` [Compound 1, 3-(1-(4-bromophenyl)-3-(4-chlorophenyl)-1H-pyrazol-4-yl)-N-(methylsulfonyl)propanamide] here?
Answer: 2 h

Question: What about the CLb ([2]; intravenous 2 mg/kg) of the same compound?
Answer: 1.18 mL/min/kg

Question: And the “activity against non-replicating Mtb” value (non-replicating Mtb)?
Answer: not active

Question: And the “log CFU reduction” value (replicating Mtb)?
Answer: 2–2.5 log CFU

Question: What about the “exposure on oral dosing” value [3] of the same compound?
Answer: high exposure

Question: Which MIC (Mtb H37Rv [1]) does the source give for `CS(=O)(=O)NC(=O)C1CC1c1cn(-c2ccc(Br)cc2)nc1-c1ccncc1` (stereo not shown) [Compound 41, 2-(1-(4-bromophenyl)-3-(pyridin-4-yl)-1H-pyrazol-4-yl)-N-(methylsulfonyl)cyclopropane-1-carboxamide] here?
Answer: 12.5 to 19 µM (≈ 5.77 to 8.77 µg/mL)

Question: With `CS(=O)(=O)NC(=O)CCc1cn(-c2ccc(Br)cc2)nc1-c1cccnc1` [Compound 17, 3-(1-(4-bromophenyl)-3-(pyridin-3-yl)-1H-pyrazol-4-yl)-N-(methylsulfonyl)propanamide] as the compound, how does the CLb ([2]; intravenous 2 mg/kg) read?
Answer: 178 mL/min/kg

Question: Which results are given for `CS(=O)(=O)NC(=O)CCc1cn(-c2ccc(Br)cc2)nc1-c1ccncc1` [Compound 16, 3-(1-(4-bromophenyl)-3-(pyridin-4-yl)-1H-pyrazol-4-yl)-N-(methylsulfonyl)propanamide]?
Answer: CLb ([2]; intravenous 2 mg/kg): > 200 mL/min/kg; MIC (Mtb isolate S1125): 15 to 30 µM (≈ 6.74 to 13.5 µg/mL); activity against non-replicating Mtb (non-replicating Mtb): not active; log CFU reduction (replicating Mtb): 2–2.5 log CFU

Question: For `CCS(=O)(=O)NC(=O)CCc1cn(-c2ccc(Br)cc2)nc1-c1ccc(Cl)cc1` [Compound 33, 3-(1-(4-bromophenyl)-3-(4-chlorophenyl)-1H-pyrazol-4-yl)-N-(ethylsulfonyl) propanamide], which MIC (Mtb H37Rv [1]) is on record?
Answer: 12.5 µM (≈ 6.21 µg/mL)

Question: Which CLb ([2]; intravenous 2 mg/kg) does the source give for `CS(=O)(=O)NC(=O)CCc1cc(-c2ccc(Br)cc2)nn1-c1ccc(Cl)cc1` [Compound 51, 3-(3-(4-bromophenyl)-1-(4-chlorophenyl)-1H-pyrazol-5-yl)-N-(methylsulfonyl)propanamide] here?
Answer: 3.13 mL/min/kg

Question: What about the “exposure on oral dosing” value [3] of the same compound?
Answer: high exposure

Question: Which CLb ([2]; intravenous 2 mg/kg) does the source give for `CS(=O)(=O)NC(=O)/C=C/c1cn(-c2ccc(Cl)cc2)nc1-c1ccncc1` [Compound 38, (E)-3-(1-(4-chlorophenyl)-3-(pyridin-4-yl)-1H-pyrazol-4-yl)-N-(methylsulfonyl)acrylamide] here?
Answer: > 200 mL/min/kg

Question: With `CS(=O)(=O)NC(=O)CCc1cn(-c2ccc(Br)cc2)nc1C1CCN(C=O)CC1` [Compound 22, 3-(1-(4-bromophenyl)-3-(1-formylpiperidin-4-yl)-1H-pyrazol-4-yl)-N-(methylsulfonyl)propanamide] as the compound, how does the MIC (Mtb H37Rv [1]) read?
Answer: ≥ 50 µM

Question: For “3-(1,3-bis(4-chlorophenyl)-1H-pyrazol-5-yl)-N-(methylsulfonyl)propanamide [Compound 8]”, which “AUC0 – t” value ([2]; intravenous 2 mg/kg) is on record?
Answer: 4883 µmol·min/L

Question: What about the Vd ([2]; intravenous 2 mg/kg) of the same compound?
Answer: 1.2 L/kg

Question: What about the t½ terminal ([2]; intravenous 2 mg/kg) of the same compound?
Answer: 3.6 h

Question: And the CLb ([2]; intravenous 2 mg/kg)?
Answer: 2.56 mL/min/kg

Question: What about the “activity against non-replicating Mtb” value (non-replicating Mtb) of the same compound?
Answer: not active

Question: And the “Microsomal clearance % remaining, Rat” value (Microsomal clearance [4])?
Answer: > 99%

Question: And the MIC (Mtb H37RvMA)?
Answer: 4 µM

Question: What about the “Microsomal clearance % remaining, Mouse” value (Microsomal clearance [5]) of the same compound?
Answer: 87%

Question: What about the “MIC against the Mtb Erdman strain” value (Mtb Erdman strain) of the same compound?
Answer: 9.1 µM

Question: What about the “log CFU reduction” value (replicating Mtb) of the same compound?
Answer: 2–2.5 log CFU

Question: What about the MIC (Mtb H37Rv [6]) of the same compound?
Answer: 4.7 µM

Question: What about the LogD (LogD) of the same compound?
Answer: 2.0

Question: And the IC90 (intracellular Mtb)?
Answer: 11 µM

Question: What about the “Microsomal clearance % remaining, Human” value (Microsomal clearance [7]) of the same compound?
Answer: 98%

Question: What about the “Human PPB fu” value (Human plasma protein) of the same compound?
Answer: 0.023

Question: What about the solubility [8] of the same compound?
Answer: 100 µM

Question: And the “exposure on oral dosing” value [3]?
Answer: high exposure

Question: What about the bioavailability ([3]; oral dosing, even at high doses) of the same compound?
Answer: > 95%

Question: For `CS(=O)(=O)NC(=O)NCc1cc(-c2ccc(Br)cc2)oc1-c1ccncc1` [Compound 58, N-(((5-(4-bromophenyl)-2-(pyridin-4-yl)furan-3-yl)methyl)carbamoyl)methanesulfonamide], which CLb ([2]; intravenous 2 mg/kg) is on record?
Answer: > 200 mL/min/kg

Question: For `CS(=O)(=O)NC(=O)CCc1cn(-c2ccc(F)cc2)nc1-c1ccc(Cl)cc1` [Compound 3, 3-(3-(4-chlorophenyl)-1-(4-fluorophenyl)-1H-pyrazol-4-yl)-N-(methylsulfonyl)propanamide], which MIC (Mtb H37Rv [1]) is on record?
Answer: ≥ 50 µM

Question: Which CLb ([2]; intravenous 2 mg/kg) does the source give for `CS(=O)(=O)NC(=O)CCc1cn(-c2ccc(Br)cc2)nc1C1CCOCC1` [Compound 20, 3-(1-(4-bromophenyl)-3-(tetrahydro-2H-pyran-4-yl)-1H-pyrazol-4-yl)-N-(methylsulfonyl)propanamide] here?
Answer: 145 mL/min/kg

Question: With `CS(=O)(=O)NC(=O)CCc1nn(-c2ccc(Br)cc2)cc1-c1ccc(Cl)cc1` [Compound 53, 3-(1-(4-bromophenyl)-4-(4-chlorophenyl)-1H-pyrazol-3-yl)-N-(methylsulfonyl)propanamide] as the compound, how does the MIC (Mtb H37Rv [1]) read?
Answer: ≥ 50 µM

Question: With `CS(=O)(=O)NC(=O)OCc1cn(-c2ccc(Cl)cc2)nc1-c1ccncc1` [Compound 45, (1-(4-chlorophenyl)-3-(pyridin-4-yl)-1H-pyrazol-4-yl)methyl (methylsulfonyl)carbamate] as the compound, how does the CLb ([2]; intravenous 2 mg/kg) read?
Answer: > 200 mL/min/kg

Question: What about the MIC (Mtb H37Rv [1]) of the same compound?
Answer: 12.5 µM (≈ 5.09 µg/mL)
